Values quoted from earlier work, collected in patent US20080139615A1, “COMBINATION OF A HYPNOTIC AGENT AND R (+)-ALPHA-(2,3-DIMETHOXY-PHENYL)-1-[2-(4-FLUOROPHENYL)ETHYL]-4-PIPERIDINEMETHANOL AND THERAPEUTIC APPLICATION THEREOF” (priority 2005, published 2008).

Columns and labels:
[1] = test system: slow wave sleep (SWS), arousals; details: patients with sleep maintenance insomnia
[2] = average dosage between 5 and 10 mg, conventional formulation

SMILES	SWS (slow wave sleep) [1]	acting time [2]	half life (average value) [2]
COc1cccc([C@H](O)C2CCN(CCc3ccc(F)cc3)CC2)c1OC [Compound A, R-(+)-α-(2,3-dimethoxyphenyl)-1-[2-(4-fluorophenyl)ethyl]-4-piperidinemethanol]	increase		
Cc1ccc(-c2nc3ccc(C)cn3c2CC(=O)N(C)C)cc1 [Zolpidem, zolpidem]		up to 6 hours	about 2.4 hours
